Measurements as given in US20070098649A1, “Method and composition for controlling oral pathogens” (priority 2004, published 2007).
Where a name gives a salt, the structure may show the parent alone. Read-outs that look alike come from different tables or passages of the source. Marks after values point to notes of the source that are not given here.

Legend:
Streptococcus mutans [1] = assay: MIC microdilution assay; format: cell-based; conditions: for MIC: Streptococcus mutans
Streptococcus gordonii [2] = assay: MIC microdilution assay; format: cell-based; conditions: for MIC: Streptococcus gordonii
[3] = test system: Actinobacillus actinomycetemcomitans; assay: MIC microdilution assay; format: cell-based; conditions: for MIC: Aggregatibacter actinomycetemcomitans
Fusobacterium nucleatum [4] = assay: MIC microdilution assay; format: cell-based; conditions: for MIC: Fusobacterium nucleatum
Porphymonas gingivalis [5] = assay: MIC microdilution assay; format: cell-based; conditions: for MIC: Porphyromonas gingivalis
Escherichia coli [6] = assay: MIC microdilution assay; format: cell-based; conditions: E. coli, agent alone, read-out: MIC of the antimicrobial agents alone
Staphylococcus aureus [7] = assay: MIC microdilution assay; format: cell-based; conditions: S. aureus, agent alone, read-out: MIC of the antimicrobial agents alone
Streptococcus mutans [8] = assay: Combination determination (FIC, MIC in combination); format: cell-based; conditions: S. mutans; for MIC of the antimicrobial agents in combination: berberine (B-CG) combined with CHX, Tet or Dox, MIC of the named agent in the combination
Procedure: (§1) The alkaloids were tested in pair-wise combinations (fractional inhibitory concentrations, FIC) against all the bacteria to determine whether interactions were antagonistic (FIC>1), additive (0.5<FIC<1), or synergistic (FIC<0.5). The FIC was calculated by the following: (MIC Acombination/MIC Aalone)+(MIC Bcombination/MIC Balone). Where A represents compound 1 and B represents compound 2. […] In the case of A. actinomycetemcomitans and P. aeruginosa, CHX was used at 0.78 to 50 μg ml^−1. Berberine (B-CG and B-S) was used at concentrations 0.9 to 250 μg ml^−1. The antibacterial efficacy of berberine (1.95 to 500 μg ml^−1) was tested in combination against P. aeruginosa with CHX (0.78 to 50 μg ml^−1) (Sigma Chemicals) and the polymyxin antibiotic Col (0.04 to 25 μg ml^−1) (Sigma Chemicals). The plates were incubated for 24 hours.
CHX was diluted from left to right at 10 to 0.08 μg ml^−1 ([…] 1 to 8), berberine was diluted from top to bottom at 250 to 0.09 μg ml^−1 ([…] 1 to 8). Column 9 was the cell control, column 10 was berberine alone (250 to 0.09 μg ml^−1); and column 11 was CHX alone (10 to 0.08 μg ml^−1). Row H was the solvent control (8% DMSO, H1 to H8). Column 12 was the media blank. The dilution assay was designed such that A1 contained the highest concentration of both agents (berberine 250 μg ml^−1 and CHX 10 μg ml^−1). The final concentration of berberine in wells A2 to A8 was […]. The FIC value was calculated from well C6. FIC was calculated by: (MIC Acombination/MIC Aalone)+(MIC Bcombination/MIC Balone).

[9] = test system: Actinobacillus actinomycetemcomitans; assay: as above; format: cell-based; conditions: A. actinomycetemcomitans grown under anaerobic conditions; berberine (B-CG) combined with CHX, Tet or Dox; MIC of the named agent in the combination
Procedure: as §1

Escherichia coli [10] = assay: as above; format: cell-based; conditions: E. coli; for MIC of the antimicrobial agents in combination: berberine (B-CG) combined with CHX, Tet or Dox, MIC of the named agent in the combination; for Growth inhibition effect when combined with berberine: berberine hydrochloride / chloride
Procedure: as §1

Fusobacterium nucleatum [11] = assay: as above; format: cell-based; conditions: F. nucleatum; for MIC of the antimicrobial agents in combination: berberine (B-CG) combined with CHX, Tet or Dox, MIC of the named agent in the combination
Procedure: as §1

Porphymonas gingivalis [12] = assay: as above; format: cell-based; conditions: P. gingivalis; for MIC of the antimicrobial agents in combination: berberine (B-CG) combined with CHX, Tet or Dox, MIC of the named agent in the combination
Procedure: as §1

Staphylococcus aureus [13] = assay: as above; format: cell-based; conditions: S. aureus; for MIC of the antimicrobial agents in combination: berberine (B-CG) combined with CHX, Tet or Dox, MIC of the named agent in the combination; for Growth inhibition effect when combined with berberine: berberine hydrochloride / chloride; for Approximate amount of antibiotic required when combined with berberine relative to when the agent is used alone: fraction of the amount alone, HCl
Procedure: as §1

Streptococcus gordonii [14] = assay: as above; format: cell-based; conditions: S. gordonii; for MIC of the antimicrobial agents in combination: berberine (B-CG) combined with CHX, Tet or Dox, MIC of the named agent in the combination
Procedure: as §1

oral pathogens = assay: Combination determination, statements on the oral pathogens; format: cell-based; conditions: berberine hydrochloride / berberine (B-CG and B-S)
Procedure: as §1

F. nucleatum [15] = assay: Viability assessment (bactericidal activity); format: cell-based
Procedure: Two representative organisms, S. mutans and F. nucleatum, were used in this study. […] Aliquots of 4 ml of agent, prepared in sterile water, were placed into sterile test tubes and 1 ml of adjusted cells was added. The control consisted of 4 ml of PBS and 1 ml of cells. Samples were removed at 0, 15, 30, and 60 minutes, serial dilutions were performed, and the appropriate dilutions plated out. The plates were incubated at 37° C. under appropriate atmospheric conditions for up to 72 hours. Viable colony counts were determined and compared to nontreated control Percentage kill was calculated using the formula: ([…]×100. Log reduction was also calculated on Log10 transformed data. Effect of Berberine on Cell Surface Hydrophobicity

S. mutans = assay: Relative cell surface hydrophobicity (hexanes partition); format: cell-based; conditions: agent alone 5 μg ml^−1
S. gordonii = assay: as above; format: cell-based; conditions: agent alone 5 μg ml^−1
F. nucleatum [16] = assay: as above; format: cell-based; conditions: agent alone 5 μg ml^−1
A. actinomycetemcomitans = assay: as above; format: cell-based; conditions: agent alone 5 μg ml^−1
P. gingivalis = assay: as above; format: cell-based; conditions: agent alone 5 μg ml^−1
test bacteria [17] = assay: Relative cell surface hydrophobicity, statements on the test bacteria; format: cell-based; conditions: summary of Table 12
[18] = test system: S. aureus, E. coli, P. aeruginosa, and S. sanguis; conditions: isolated from H. canadensis; cited from earlier work
test bacteria [19] = assay: MIC microdilution assay, statements on all test bacteria; format: cell-based; conditions: read-out: Concentration without growth inhibition of the test bacteria (MIC bound)
[20] = S. mutans, agent alone, read-out: MIC of the antimicrobial agents alone
[21] = S. gordonii, agent alone, read-out: MIC of the antimicrobial agents alone
[22] = A. actinomycetemcomitans grown under anaerobic conditions, agent alone, read-out: MIC of the antimicrobial agents alone
[23] = F. nucleatum, agent alone, read-out: MIC of the antimicrobial agents alone
[24] = P. gingivalis, agent alone, read-out: MIC of the antimicrobial agents alone
[25] = read-out: MIC of Goldenseal Alkaloids Against Selected Oral Pathogens

Row | SMILES | MIC (Streptococcus mutans [1]; [20]) | MIC (Streptococcus gordonii [2]; [21]) | MIC [3, 22] | MIC (Fusobacterium nucleatum [4]; [23]) | MIC (Porphymonas gingivalis [5]; [24]) | MIC (Escherichia coli [6]) | MIC (Staphylococcus aureus [7]) | MIC of the antimicrobial agents in combination (Streptococcus mutans [8]) | MIC of the antimicrobial agents in combination [9] | MIC of the antimicrobial agents in combination (Escherichia coli [10]) | Growth inhibition effect when combined with berberine (Escherichia coli [10]) | MIC of the antimicrobial agents in combination (Fusobacterium nucleatum [11]) | MIC of the antimicrobial agents in combination (Porphymonas gingivalis [12]) | MIC of the antimicrobial agents in combination (Staphylococcus aureus [13]) | Growth inhibition effect when combined with berberine (Staphylococcus aureus [13]) | MIC of the antimicrobial agents in combination (Streptococcus gordonii [14]) | Growth inhibition effect when combined with berberine (oral pathogens) | Antibacterial activity [18] | other results
1 | C[C@H]1c2cccc(O)c2C(=O)C2=C(O)[C@]3(O)C(=O)C(C(N)=O)=C(O)[C@@H](N(C)C)[C@@H]3[C@@H](O)[C@@H]21 [Dox, doxycycline HCl] | 0.78 µg/mL | 0.31 µg/mL | 6.25 µg/mL | 0.04 µg/mL | 0.08 µg/mL | 1.53 µg/mL | 1.53 µg/mL | 0.20 µg/mL | 6.25 µg/mL | 0.77 µg/mL | synergistic | 0.10 µg/mL | 0.01 µg/mL | 0.39 µg/mL | synergistic | 0.08 µg/mL | synergistic | – | Approximate amount of antibiotic required when combined with berberine relative to when the agent is used alone (Streptococcus mutans [8]; fraction of the amount alone): ¼; Approximate amount of antibiotic required when combined with berberine relative to when the agent is used alone (Escherichia coli [10]; fraction of the amount alone): ½; Approximate amount of antibiotic required when combined with berberine relative to when the agent is used alone (Fusobacterium nucleatum [11]; fraction of the amount alone): ¼; Approximate amount of antibiotic required when combined with berberine relative to when the agent is used alone (Porphymonas gingivalis [12]; fraction of the amount alone): ¼; Approximate amount of antibiotic required when combined with berberine relative to when the agent is used alone (Staphylococcus aureus [13]; listed as Doxycycline (HCL)): ⅕; Approximate amount of antibiotic required when combined with berberine relative to when the agent is used alone (Staphylococcus aureus [13]; listed as Doxycycline-HCl): ½; Approximate amount of antibiotic required when combined with berberine relative to when the agent is used alone (Streptococcus gordonii [14]; fraction of the amount alone): <¼; Reduction of the concentration required for comparable reduction in viability when used in combination (F. nucleatum [15]; Dox (5 μg ml^−1), berberine (250 μg ml^−1)): one-half; Viability after 60 min exposures (mean Log10 reduction of CFU) (F. nucleatum [15]; Dox (10)): 1.56 Log10; Typical reduction scores on relative cell surface hydrophobicity (S. mutans): 8.1%; Typical reduction scores on relative cell surface hydrophobicity (S. gordonii): 7.7%; Typical reduction scores on relative cell surface hydrophobicity (F. nucleatum [16]): −3.5%; Typical reduction scores on relative cell surface hydrophobicity (A. actinomycetemcomitans): −4.1%; Typical reduction scores on relative cell surface hydrophobicity (P. gingivalis): 1.7%; Effect on the relative hydrophobicity of the cells (test bacteria [17]): did not appear to affect
2 | COc1ccc2c(c1OC)C(=O)O[C@@H]2[C@H]1c2cc3c(cc2CCN1C)OCO3 [β-hydrastine] | – | – | – | – | – | – | – | – | – | – | – | – | – | – | – | – | – | inactive against all the tested organisms | –
3 | COc1ccc(C[C@@H]2c3cc4c(cc3CCN2C)OCO4)c(C=O)c1OC [Canadaline, canadaline] | – | – | – | – | – | – | – | – | – | – | – | – | – | – | – | – | – | antimicrobial at comparable concentrations to berberine | MIC of Goldenseal Alkaloids Against Selected Oral Pathogens (Streptococcus mutans [1]; Sm, S. mutans): >250 µg/mL; MIC of Goldenseal Alkaloids Against Selected Oral Pathogens (Streptococcus gordonii [2]; Sg, S. gordonii): >250 µg/mL; MIC of Goldenseal Alkaloids Against Selected Oral Pathogens ([3]; Aa, A. actinomycetemcomitans): >250 µg/mL; MIC of Goldenseal Alkaloids Against Selected Oral Pathogens (Fusobacterium nucleatum [4]; Fn, F. nucleatum): >250 µg/mL; MIC of Goldenseal Alkaloids Against Selected Oral Pathogens (Porphymonas gingivalis [5]; Pg, P. gingivalis): >250 µg/mL
4 | COc1ccc2c(c1OC)C(=O)O[C@@H]2[C@H]1c2cc3c(cc2CCN1C)OCO3 [Hydrastine, hydrastine] | – | – | – | – | – | – | – | – | – | – | – | – | – | – | – | – | – | – | MIC (Streptococcus mutans [1]; [25]): > 500 µg/mL; MIC (Streptococcus gordonii [2]; [25]): > 500 µg/mL; MIC [3, 25]: > 500 µg/mL; MIC (Fusobacterium nucleatum [4]; [25]): > 500 µg/mL; MIC (Porphymonas gingivalis [5]; [25]): > 500 µg/mL; MIC (test bacteria [19]): > 500 µg/mL
5 | CN(C)[C@@H]1C(O)=C(C(N)=O)C(=O)[C@@]2(O)C(O)=C3C(=O)c4c(O)cccc4[C@@](C)(O)[C@H]3C[C@@H]12 [Tet, tetracycline HCl] | 1.56 µg/mL | 0.31 µg/mL | 25 µg/mL | 0.16 µg/mL | 0.08 µg/mL | 3.06 µg/mL | 1.53 µg/mL | 0.20 µg/mL | 12.5** μg ml^−1 | 1.53 µg/mL | synergistic | 0.02 µg/mL | 0.01 µg/mL | 0.39 µg/mL | synergistic | 0.08 µg/mL | synergistic | – | –
